Assay results as given in US10059708B2, “Therapeutic targeting of the interleukin 1 receptor-associated kinase 4 (IRAK4) in leukemias characterized by rearrangements in the mixed lineage leukemia gene (MLL-r)” (Northwestern University, priority 2016, dated 2018).
Entries after “also recorded” stand apart in the source; their conditions may differ.

Tests used:
Human IRAK4 = biological target: T1, Human IRAK4 (Homo sapiens, UniProt Q9NWZ3); assay: IRAK4 kinase inhibition assay (ADP-Glo); assay type: biochemical; conditions: for Inhibition of IRAK4 kinase activity: 100 uM of each inhibitor, 12.5 uM ATP, relative activity to DMSO (FIG. 15); for IRAK4 kinase inhibition: at increasing concentration (FIG. 16B)
T1 sequence (Q9NWZ3 1-460): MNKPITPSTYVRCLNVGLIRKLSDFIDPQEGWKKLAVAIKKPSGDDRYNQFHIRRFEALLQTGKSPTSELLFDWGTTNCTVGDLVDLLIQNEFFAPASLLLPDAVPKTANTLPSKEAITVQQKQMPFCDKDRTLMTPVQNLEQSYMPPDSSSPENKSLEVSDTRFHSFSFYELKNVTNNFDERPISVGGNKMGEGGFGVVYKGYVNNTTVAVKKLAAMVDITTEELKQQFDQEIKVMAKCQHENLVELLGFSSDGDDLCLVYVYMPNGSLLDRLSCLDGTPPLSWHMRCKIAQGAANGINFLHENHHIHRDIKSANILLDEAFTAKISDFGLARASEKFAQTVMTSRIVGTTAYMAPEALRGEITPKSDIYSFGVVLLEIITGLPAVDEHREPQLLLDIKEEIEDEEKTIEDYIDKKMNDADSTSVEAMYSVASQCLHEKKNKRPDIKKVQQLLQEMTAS
Procedure: FIG. 15. Inhibition of IRAK4 kinase activity by NU's IRAK4 kinase inhibitors. 10 ng IRAK4, 12.5 uM ATP and 500 ng MBP (substrate) were used in the IRAK4 kinase assay. 100 uM of each inhibitor were used individual in the assay and the reaction product ADP was detected by the ADP-GLO assay. Relative activity to DMSO is shown.
(§1) FIG. 16. Development of novel compounds (NUCC0200618 and NUCC0200554) that stabilize the wild-type MLL protein and slow leukemic cell growth through IRAK4 inhibition. A) Western blotting for MLL protein levels in cells treated with the indicated compounds designed and synthesized at Northwestern. Protein stabilization is observed to increase by 6 hours of treatment. B) Luciferase-based IRAK4 kinase assays (Promega) with the indicated doses of the new compounds. C) Cell viability counts after 3 days of treatment with the indicated doses of the new compounds.
The newly synthesized compounds were tested in an IRAK4 kinase inhibition assay as follows. In a 10 μl reaction, 10 ng Human IRAK4, 12.5 μM ATP, 500 ng dephosphorylated MBP (EMD Millipore), and different IRAK inhibitors were used in 1× kinase buffer (60 mM HEPES-NaOH, pH 7.5, 3 mM MgCl2, 3 mM MnCl2, 1.2 mM DTT, 0.1% BSA) at room temperature for 45 minutes. The ADP formed from the kinase reaction was measured by the ADP-Glo™ Kinase Assay (Cat.#V9101) and the luminescence was measured with a Tecan Infinite M1000 plate reader.

wild-type MLL protein = assay: MLL stabilization assay (western blotting) with new compounds; assay type: cell-based; conditions: western blotting for MLL protein levels (FIG. 16A)
Procedure: as §1
The newly synthesized compound NUCC0200554 (Compound 16 of Example 2) and compound NUCC0200618 (Compound 21 of Example 2) were further tested in MLL stabilization assay, in an IRAK4 kinase activity as described above, and in a SEM cell proliferation assay as follows. SEM (ACC-546) leukemia cells were maintained in Iscove's Modified Dulbecco's Medium (IMDM) with 10% FBS. Viable SEM cells were seeded at 0.2 million/ml, and treated with different concentrations of inhibitors at the indicated concentrations for three days. Viable cells were monitored by trypan blue exclusion staining and counted using a Vi-CELL XR cell counter. Data are represented as Mean±SD (n=3).

SEM cells = assay: RNA-seq gene expression profiles of SEM cells, new versus commercial IRAK inhibitors; assay type: cell-based, human; conditions: 3 days
From the text: FIG. 17. Comparison of novel IRAK4 inhibitors (NUCC numbers) with commercially available IRAK inhibitors (referred to here as IRAK1/4 and IRAK4) on gene expression in leukemia cells as determined by RNA-seq. SEM cells were maintained in IMDM medium with 10% FBS. […] SEM cells were harvested and used for total RNA-seq. A: PCA plot of each group with different treatments. […] B: Distance plot of each group with the indicated treatments.
The gene expression profiles of SEM cells treated with newly synthesized compound NUCC0200554 (Compound 16 of Example 2) and compound NUCC0200618 (Compound 21 of Example 2) as follows. After inhibitor treatment for 3 days, SEM cells were collected and lysed with Trizol reagent. Total RNA was extracted from Trizol according to the manufacturer's instructions. The RNA was treated with DNase I (NEB) and cleaned with the Qiagen RNeasy mini kit. 500 ng RNA was used for library preparation with TruSeq Stranded Total RNA with Ribo-Zero Gold kit (Illumina, RS-123-2201). The sequenced reads were aligned to the human genome (UCSC hgl9) with TopHat 2.1.0 using gene annotations from Ensembl 72. Differential gene expression was performed with Deseq2.

endogenous MLL protein = assay: MLL protein levels / stability in HEK293 cells (western blotting, cycloheximide chase); assay type: cell-based, human; design: dose or concentration left out as unconfirmed; conditions: for indicated times or different concentrations for 24 hr, relative to DMSO
MLL-UBE2O interaction = MLL-UBE2O interaction (HaloTag purification, MudPIT, co-immunoprecipitation); assay type: cell-based, human; design: dose or concentration left out as unconfirmed; conditions: Halo-MLL-Inter-transfected HEK293 cells
Procedure: (§2) FIG. 3. […] (D) Halo-MLL-Inter-transfected HEK293 cells were treated with […]/4 inhibitor for 24 hr, purified with HaloLink resin, and subjected to MudPIT analysis. […] Each row represents a peak of MLL occupancy (n=6,250), with rows ordered by decreasing MLL occupancy in the inhibitor-treated condition. […] Boxplots depict the read coverage for all MLL peaks. The p value was calculated with the Wilcoxon signed-rank test. See also FIG. 10.

MLL occupancy = assay: MLL ChIP-seq in HEK293 cells; assay type: cell-based, human
Procedure: as §2
FIG. 10. […] Occupancy in reads per million (rpm)±3 kb around the center of peak is shown (N=6250). Genes are ordered by MLL occupancy in the inhibitor treatment. […] The read counts of all the MLL peaks were plotted and the Wilcoxon signed-rank test was used to calculate the p value (F).
Chromatin Immunoprecipitation Sequencing. […] ChIP-seq reads were aligned to the mouse (UCSC mm9) or human genome (UCSC hg19). Alignments were processed with Bowtie version 1.1.2, allowing only uniquely mapping reads with up to two mismatches within the 50 bp read. The resulting reads were extended to 150 bases toward the interior of the sequenced fragment and normalized to total reads aligned (reads per million, rpm). […] The average coverage (calculated using rpm tracks described above) across the entire region is shown in the boxplots where p values were calculated with the Wilcoxon signed-rank test. […]

REH cells = assay: REH cell proliferation (trypan blue, Vi-CELL XR); assay type: cell-based, human; conditions: IRAK1/4 inhibitor
Procedure: FIG. 4. […] Viable cells were seeded at 0.2 million/mL, and they were monitored by trypan blue exclusion staining and counted using a Vi-CELL XR cell counter. Data are represented as mean±SD (n=3). […] Data are represented as mean±SD (n=3). (C) Venn diagram of deregulated genes in SEM cells by IRAK1/4 and IRAK4 inhibitors. […] (D) Venn diagram of deregulated genes in SEM and REH cells by both inhibitors. Little overlap was observed between REH and SEM cells. […] Each cluster is represented by different colors and a circle node represents each enriched term. (G) UBE2O depletion and IRAK inhibition affect a common subset of genes in SEM cells. […] Heatmaps represent Z score-normalized values. See also FIG. 11.
Stabilization of MLL through IRAK Inhibition and UBE2O Depletion Regulates a Specific Gene Regulatory Network in MLL Leukemia. To measure the consequence of stabilizing MLL in MLL leukemia cells, we determined the effects of IRAK inhibition on cell proliferation of REH (MLL-germline leukemia) and SEM (MLL-AFF1) cells. Both of these cell lines are derived from precursor B cell ALL patient blast cells, and, therefore, they have been studied when comparing non-MLL (REH) and MLL-dependent (SEM) leukemia gene expression (Guenther et al., 2008).

SEM and REH cells = assay: Total RNA-seq, SEM versus REH cells; assay type: cell-based, human; conditions: 2 days of treatment
Procedure: Total RNA Sequencing. […] Total RNA was extracted from Trizol according to the manufacturer's instructions. The RNA was treated with DNase I (NEB) and cleaned with the QIAGEN RNeasy mini kit. 500 ng RNA was used for library preparation with TruSeq Stranded Total RNA with Ribo-Zero Gold kit (Illumina, RS-123-2201). The sequenced reads were aligned to the human genome (UCSC hgl9) with TopHat 2.1.0 using gene annotations from Ensembl 72. Differential gene expression was performed with EdgeR (Empirical analysis of digital gene expression data in R) version 3.08 (Robinson et al., 2010). Adjusted p values were computed using the Benjamini-Hochburg method. […] P values for Venn diagrams were performed with the hypergeometric test.

MLL-AF9 leukemia = assay: Murine MLL-AF9 leukemia transplantation model; assay type: in vivo, C57BL/6 mice; conditions: treatment from day 10 after transplantation; IRAK1/4 inhibitor 8 mg/kg, IRAK4 inhibitor 75 mg/kg i.p. every other day; vehicle mice all dead by 31 days
From the text: After transformation of MLL-AF9, c-Kit+ HSPCs were transplanted into lethally irradiated C57BL/6 mice with 1 3 106 transformed cells and 2 3 105 support cells. Leukemia cells from primary AML mice were isolated and transplanted into sublethally irradiated C57BL/6 mice. Drug treatments were started at day 10 or 19 after transplantation. (B) Kaplan-Meier survival curves of secondary transplanted C57BL/6 mice after vehicle and IRAK1/4 or IRAK4 inhibitor treatment at day 19 (blast phase). Vehicle or IRAK inhibitors were administered every other day by intraperitoneal injection for a total of five treatments. Leukemia was confirmed at the endpoint for each transplant mouse. […] The p values were calculated using the log rank test. […] The p values were calculated using the log rank test. […]
We further assessed the effects of the IRAK inhibitors in vivo using the murine MLL-AF9 leukemia transplantation model (FIG. 7A) (Volk et al., 2014). […]
Murine MLL-AF9 Leukemia Model. […] The mice were monitored for signs of acute leukemia for 2-3 months and euthanized when leukemia was evident (weight loss below 16.75 g, reduced mobility, malaise, palpable spleen, and hunched back). […]
Animal Treatment. […] Mice were monitored for leukemia development and leukemia was verified after the mice were sacrificed upon signs of illness (weight loss below 16.75 g, partial paralysis, malaise, palpable spleen, and hunched back).

MDS and T-ALL cells = conditions: subset of MDS and T-ALL cells with high expression of IRAK1; cited from earlier work

Row | Inhibition of IRAK4 kinase activity (Human IRAK4) | IRAK4 kinase inhibition (Human IRAK4) | Structure (SMILES) | MLL stabilization (wild-type MLL protein) | PCA plot grouping of RNA-seq profile (SEM cells; 5 uM) | PCA plot grouping of RNA-seq profile (SEM cells; 10 uM) | MLL protein levels (MLL N320) (endogenous MLL protein) | MLL protein levels (MLL N320) (endogenous MLL protein; listed as IRAK1/4 inhibitor I) | MLL-UBE2O interaction (MLL-UBE2O interaction) | genome-wide MLL occupancy (MLL occupancy; HEK293 cells, 6,250 MLL peaks) | MLL occupancy at MLL target genes HOXA, HOXC, FOXC1 (MLL occupancy; HEK293 cells, 24 hr, D2M7U and NT86 antibodies) | REH cell proliferation (REH cells) | genes downregulated in both REH and SEM cells (SEM and REH cells) [genes] | genes upregulated in both REH and SEM cells (SEM and REH cells) [genes] | mice that still did not develop MLL-AF9 leukemia as of day 55 (MLL-AF9 leukemia) | effect of IRAK1/4 inhibitor alone (MDS and T-ALL cells) | sensitization to BCL2 inhibitor treatment (MDS and T-ALL cells)
1 | inhibit IRAK4 kinase activity | inhibit IRAK4 kinase | O=C(Nc1ncc(-c2cccc(O)c2)[nH]1)c1ccccc1 [NUCC0200618, N-(5-(3-hydroxyphenyl)-1H-imidazol-2-yl)benzamide] | stabilize MLL | very similar profiles | group together | – | – | – | – | – | – | – | – | – | – | –
2 | inhibit IRAK4 kinase activity | inhibit IRAK4 kinase | Nc1cccc(-c2cnc(NC(=O)c3cccc(Cl)c3)[nH]2)c1 [NUCC0200554, N-(5-(3-aminophenyl)-1H-imidazol-2-yl)-3-chlorobenzamide] | stabilize MLL | – | very similar profiles | – | – | – | – | – | – | – | – | – | – | –
3 | – | – | O=C(Nc1nc2ccccc2n1CCN1CCOCC1)c1cccc([N+](=O)[O-])c1 [IRAK1/4 inhibitor] | – | – | – | stabilizes endogenous MLL protein; also recorded: stabilizes MLL protein from proteasomal degradation in a dose-dependent manner | increased levels of MLL protein in a time- and dose-dependent manner | substantially decreased; also recorded: decreases MLL-UBE2O interaction | significant increases in MLL occupancy; also recorded: MLL occupancy is significantly increased; also recorded: general increase in MLL occupancy | enhanced MLL occupancy; also recorded: increases MLL occupancy at HOXA and HOXC loci; also recorded: increased MLL occupancy | no effect | 238 | 186 | eight of ten | does not substantially impair these cells | sensitize a subset of MDS and T-ALL cells
